Reference: ChEMBL document CHEMBL1146252, “Discovery and SAR study of novel dihydroquinoline-containing glucocorticoid receptor agonists” (Bioorg Med Chem Lett, 2007)
pIC50: −log10 of the molar value. Activity calls are given as the source filed them. No cut-off for these calls is given here.

Key:
Glucocorticoid receptor = target: T1, Glucocorticoid receptor (Homo sapiens, UniProt P04150); experiment: Displacement of Dexamethasone from human glucocorticoid receptor by fluorescence polarization assay
T1 sequence (P04150 whole entry): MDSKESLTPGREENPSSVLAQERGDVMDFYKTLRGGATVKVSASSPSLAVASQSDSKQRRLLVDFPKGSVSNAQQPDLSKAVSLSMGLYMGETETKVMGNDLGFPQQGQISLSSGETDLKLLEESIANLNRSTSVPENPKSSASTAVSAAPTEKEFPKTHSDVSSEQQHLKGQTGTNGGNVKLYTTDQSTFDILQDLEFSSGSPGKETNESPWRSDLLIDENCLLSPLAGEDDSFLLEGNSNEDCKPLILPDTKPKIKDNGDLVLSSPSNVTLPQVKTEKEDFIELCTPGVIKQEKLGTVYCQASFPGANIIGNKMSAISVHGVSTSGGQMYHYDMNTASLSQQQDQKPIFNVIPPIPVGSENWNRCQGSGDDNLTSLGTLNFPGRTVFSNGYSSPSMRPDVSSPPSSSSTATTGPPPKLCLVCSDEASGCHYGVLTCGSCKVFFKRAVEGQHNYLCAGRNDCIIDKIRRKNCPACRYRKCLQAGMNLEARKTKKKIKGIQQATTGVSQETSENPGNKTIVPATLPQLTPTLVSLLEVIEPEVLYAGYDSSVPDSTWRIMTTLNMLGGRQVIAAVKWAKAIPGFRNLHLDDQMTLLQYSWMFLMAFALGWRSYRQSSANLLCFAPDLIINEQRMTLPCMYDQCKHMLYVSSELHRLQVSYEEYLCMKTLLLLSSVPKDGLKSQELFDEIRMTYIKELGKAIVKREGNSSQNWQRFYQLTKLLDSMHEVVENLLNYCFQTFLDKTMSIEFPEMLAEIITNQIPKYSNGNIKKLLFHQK

Progesterone receptor = target: T2, Progesterone receptor (Homo sapiens, UniProt P06401); experiment: Displacement of RU486 from human progesterone receptor by fluorescence polarization assay
T2 sequence (P06401 whole entry): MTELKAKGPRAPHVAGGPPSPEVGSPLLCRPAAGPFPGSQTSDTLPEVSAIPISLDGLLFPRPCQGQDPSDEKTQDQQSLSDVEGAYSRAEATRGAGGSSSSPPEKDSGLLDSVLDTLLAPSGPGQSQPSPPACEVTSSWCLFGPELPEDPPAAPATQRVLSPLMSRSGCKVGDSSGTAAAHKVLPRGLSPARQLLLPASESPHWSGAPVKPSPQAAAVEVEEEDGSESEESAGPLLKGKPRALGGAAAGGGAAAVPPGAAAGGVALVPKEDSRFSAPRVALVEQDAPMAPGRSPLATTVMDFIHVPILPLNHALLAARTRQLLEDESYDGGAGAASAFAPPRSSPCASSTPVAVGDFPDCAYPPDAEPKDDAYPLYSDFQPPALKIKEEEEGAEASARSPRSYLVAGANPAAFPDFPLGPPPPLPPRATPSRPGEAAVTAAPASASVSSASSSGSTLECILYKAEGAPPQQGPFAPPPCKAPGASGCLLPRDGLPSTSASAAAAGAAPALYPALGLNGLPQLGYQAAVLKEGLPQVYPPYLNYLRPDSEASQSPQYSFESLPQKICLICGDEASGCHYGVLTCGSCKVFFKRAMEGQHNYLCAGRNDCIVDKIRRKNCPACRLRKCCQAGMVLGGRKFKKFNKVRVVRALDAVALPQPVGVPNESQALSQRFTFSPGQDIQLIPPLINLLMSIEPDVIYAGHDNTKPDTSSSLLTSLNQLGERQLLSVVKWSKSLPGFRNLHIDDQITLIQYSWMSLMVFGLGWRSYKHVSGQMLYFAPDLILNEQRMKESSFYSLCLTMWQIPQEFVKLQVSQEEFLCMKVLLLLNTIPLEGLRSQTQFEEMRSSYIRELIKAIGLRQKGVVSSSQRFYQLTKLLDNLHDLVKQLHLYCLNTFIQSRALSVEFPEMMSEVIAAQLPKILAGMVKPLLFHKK

[1] = target: T3, Mineralocorticoid receptor (Homo sapiens, UniProt P08235); experiment: Displacement of Dexamethasone from human mineralocorticoid receptor by fluorescence polarization assay
T3 sequence (P08235 whole entry): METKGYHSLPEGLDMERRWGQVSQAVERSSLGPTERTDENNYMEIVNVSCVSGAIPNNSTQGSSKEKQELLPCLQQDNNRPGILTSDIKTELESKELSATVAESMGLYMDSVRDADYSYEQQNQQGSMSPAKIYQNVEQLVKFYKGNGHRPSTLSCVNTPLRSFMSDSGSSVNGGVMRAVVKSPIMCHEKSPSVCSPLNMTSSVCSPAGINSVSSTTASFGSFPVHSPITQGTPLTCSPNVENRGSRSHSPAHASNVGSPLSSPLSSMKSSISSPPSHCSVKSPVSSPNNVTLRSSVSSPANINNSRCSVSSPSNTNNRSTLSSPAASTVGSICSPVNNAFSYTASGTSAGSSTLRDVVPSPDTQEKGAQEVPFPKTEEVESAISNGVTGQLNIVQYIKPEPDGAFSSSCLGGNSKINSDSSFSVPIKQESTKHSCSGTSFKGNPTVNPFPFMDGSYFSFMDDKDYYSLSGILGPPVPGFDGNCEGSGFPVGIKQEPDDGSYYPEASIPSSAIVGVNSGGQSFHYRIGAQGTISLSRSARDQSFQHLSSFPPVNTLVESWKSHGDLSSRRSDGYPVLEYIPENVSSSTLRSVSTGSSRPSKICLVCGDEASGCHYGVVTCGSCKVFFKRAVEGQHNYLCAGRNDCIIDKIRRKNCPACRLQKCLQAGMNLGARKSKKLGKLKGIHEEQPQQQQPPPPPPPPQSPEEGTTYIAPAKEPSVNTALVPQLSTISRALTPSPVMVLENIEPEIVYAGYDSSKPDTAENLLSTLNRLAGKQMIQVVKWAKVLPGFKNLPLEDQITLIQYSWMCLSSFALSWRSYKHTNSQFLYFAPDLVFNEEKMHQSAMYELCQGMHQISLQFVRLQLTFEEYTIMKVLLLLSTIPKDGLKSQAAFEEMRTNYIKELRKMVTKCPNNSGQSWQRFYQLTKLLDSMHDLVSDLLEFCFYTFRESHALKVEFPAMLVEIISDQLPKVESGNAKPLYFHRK

[2] = Metabolic stability in human liver microsomes; assay type: ADME, Microsome
Fibroblast [3] = experiment: Inhibition of IL1-induced IL6 production in foreskin fibroblasts at 2000 nM after 24 hrs relative to Dexamethasone; assay type: functional, Homo sapiens
Fibroblast [4] = experiment: Inhibition of IL1-induced IL6 production in foreskin fibroblasts after 24 hrs; assay type: functional, cell-based, Homo sapiens
Estrogen receptor = target: T4, Estrogen receptor (Homo sapiens, UniProt P03372); experiment: Displacement of fluormone from human estrogen receptor by fluorescence binding assay
T4 sequence (P03372 whole entry): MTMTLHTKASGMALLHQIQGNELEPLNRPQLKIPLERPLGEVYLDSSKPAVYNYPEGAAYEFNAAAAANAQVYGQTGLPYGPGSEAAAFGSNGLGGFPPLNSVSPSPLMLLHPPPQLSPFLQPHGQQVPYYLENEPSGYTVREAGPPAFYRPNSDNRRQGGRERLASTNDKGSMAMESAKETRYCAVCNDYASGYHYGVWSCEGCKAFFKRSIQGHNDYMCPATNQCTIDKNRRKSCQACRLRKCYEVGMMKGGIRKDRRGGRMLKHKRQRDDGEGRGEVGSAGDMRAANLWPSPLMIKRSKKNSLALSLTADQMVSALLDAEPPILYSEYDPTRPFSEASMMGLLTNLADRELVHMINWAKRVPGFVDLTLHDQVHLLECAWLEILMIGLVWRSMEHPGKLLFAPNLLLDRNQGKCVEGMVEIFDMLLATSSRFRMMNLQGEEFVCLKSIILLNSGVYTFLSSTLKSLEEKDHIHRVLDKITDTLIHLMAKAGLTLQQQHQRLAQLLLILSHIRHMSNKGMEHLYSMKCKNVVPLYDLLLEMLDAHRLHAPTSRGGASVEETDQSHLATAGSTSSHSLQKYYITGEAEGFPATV

| pIC50 (Glucocorticoid receptor) | pIC50 (Progesterone receptor) | Compound | also measured |
| --- | --- | --- | --- |
| 6.54 | < 5.70 | COc1ccccc1-c1ccc2c(c1)C(C(C)OCCc1ccccc1Cl)=CC(C)(C)N2 (stereo not drawn) |  |
| < 5.70 | < 5.70 | C=CCOC(C1=CC(C)(C)Nc2ccc(-c3ccccc3OC)cc21)c1ccccc1 (stereo not drawn) |  |
| 6.45 | 6.48 | C=CCOC(CC)C1=CC(C)(C)Nc2ccc(-c3ccccc3OC)cc21 (stereo not drawn) |  |
| < 5.70 | < 5.70 | C=CC[S+]([O-])CC1=CC(C)(C)Nc2ccc(-c3ccccc3OC)cc21 (stereo not drawn) |  |
| 5.97 | 6.27 | COc1ccccc1-c1ccc2c(c1)C(C(C)OC)=CC(C)(C)N2 (stereo not drawn) |  |
| 6.39 | < 5.70 | COc1ccccc1-c1ccc2c(c1)C(C(C)OCCc1ccccc1)=CC(C)(C)N2 (stereo not drawn) |  |
| < 5.70 | 6.00 | C=CCOC(CCc1ccccc1)C1=CC(C)(C)Nc2ccc(-c3ccccc3OC)cc21 (stereo not drawn) |  |
| 6.15 | 6.02 | C=CCOC(C1=CC(C)(C)Nc2ccc(-c3ccccc3OC)cc21)C(C)C (stereo not drawn) |  |
| 6.73 | 6.03 | COc1ccccc1-c1ccc2c(c1)C(C(C)OCCc1ccc(Cl)cc1)=CC(C)(C)N2 (stereo not drawn) |  |
| 6.56 | 5.72 | COc1ccccc1-c1ccc2c(c1)C(C(C)OCCc1cccc(Cl)c1)=CC(C)(C)N2 (stereo not drawn) |  |
| < 5.70 | < 5.70 | C=CCOC(CCC)C1=CC(C)(C)Nc2ccc(-c3ccccc3OC)cc21 (stereo not drawn) |  |
|  |  | C=CCSCC1=CC(C)(C)Nc2ccc(-c3cc(F)ccc3OC)cc21 | pIC50 [1]: < 5.70; half-life [2]: 12 min; Activity (Fibroblast [4]; Homo sapiens): inactive; pIC50 (Estrogen receptor): < 5.70 |
| < 5.70 | 5.92 | C=CCOC(Cc1ccccc1)C1=CC(C)(C)Nc2ccc(-c3ccccc3OC)cc21 (stereo not drawn) |  |
| 6.40 | 6.01 | COc1ccccc1-c1ccc2c(c1)C(C(C)OCC=C(C)C)=CC(C)(C)N2 (stereo not drawn) |  |
| < 5.70 | 6.36 | C=CCOC(CC=C)C1=CC(C)(C)Nc2ccc(-c3ccccc3OC)cc21 (stereo not drawn) |  |
| 6.94 | 6.22 | C=CCSC(C)C1=CC(C)(C)Nc2ccc(-c3ccccc3OC)cc21 (stereo not drawn) |  |
| 6.40 | < 5.70 | COc1ccccc1-c1ccc2c(c1)C(C(C)OCCC1CCCCC1)=CC(C)(C)N2 (stereo not drawn) |  |
|  |  | COc1ccc(F)cc1-c1ccc2c(c1)C(CSCCc1ccccc1)=CC(C)(C)N2 | half-life [2]: 17 min; Activity (Fibroblast [4]; Homo sapiens): inactive; pIC50 (Estrogen receptor): < 5.70 |
| 6.68 | 5.89 | C/C=C/COC(C)C1=CC(C)(C)Nc2ccc(-c3ccccc3OC)cc21 (stereo not drawn) |  |
| 6.71 | 5.89 | COc1ccc(F)cc1-c1ccc2c(c1)C(C(C)OCCc1ccccc1)=CC(C)(C)N2 (stereo not drawn) |  |
| 6.25 | 5.80 | CC/C=C/COC(C)C1=CC(C)(C)Nc2ccc(-c3ccccc3OC)cc21 (stereo not drawn) |  |

| Compound | pIC50 (Glucocorticoid receptor) | pIC50 (Progesterone receptor) | also measured |
| --- | --- | --- | --- |
| C=CCOC(C)C1=CC(C)(C)Nc2ccc(-c3cc(F)ccc3OC)cc21.Cl (single isomer, unassigned; (-)) | 6.96 | 6.21 | pIC50 [1]: < 5.70; half-life [2]: 5 min; Inhibition (Fibroblast [3]): 46%; pIC50 (Fibroblast [4]; Homo sapiens, Fibroblast, 24 h): 6.59 |
| Br.C=CCOC(C)C1=CC(C)(C)Nc2ccc(-c3cc(F)ccc3OC)cc21 (single isomer, unassigned; (+)) | 7.40 | 6.77 | pIC50 [1]: 5.96; half-life [2]: 6 min; inhibition at 2 µM (Fibroblast [3]; Homo sapiens, Fibroblast, 24 h): 28%; pIC50 (Fibroblast [4]; fibroblast): 6.77; pIC50 (Estrogen receptor): < 5.70 |
| COc1ccccc1-c1ccc2c(c1)C(C(C)OC/C=C/c1ccccc1)=CC(C)(C)N2 (stereo not drawn) | 6.01 | < 5.70 |  |
| C=CCOC(C)C1=CC(C)(C)Nc2ccc(-c3cc(F)ccc3OC)cc21 (racemic) | 7.47 | 6.35 | pIC50 [1]: 6.01; half-life [2]: 6 min |
| COc1ccccc1-c1ccc2c(c1)C(C(C)OCCCc1ccccc1)=CC(C)(C)N2 (stereo not drawn) | 6.59 | < 5.70 |  |
| C=CCOC(C)C1=CC(C)(C)Nc2ccc(-c3ccccc3OC)cc21 (stereo not drawn) | 6.94 | 6.32 |  |
